Carcinogen call data for five compounds are collected here from PubChem BioAssay AID1259411 (Chemical Carcinogenesis Research Information System (CCRIS), 2018).

The test system of the data set is rodent carcinogenicity bioassays, tumor incidence. The experiment in a line: CCRIS carcinogenicity studies. As to conditions: Dose: 0, Dose: 0. The text has this:
The CCRIS database contains chemical records with carcinogenicity, mutagenicity, tumor promotion, and tumor inhibition test results. It was developed by the National Cancer Institute (NCI). Data are derived from studies cited in primary journals, current awareness tools, NCI reports, and other sources. Test results have been reviewed by experts in carcinogenesis and mutagenesis.
CCRIS provides historical information from the years 1985 - 2011. It is no longer updated.
This is an archive assay for CCRIS carcinogenicity studies.

The source made the active and inactive calls. The rule behind the calls is not given here.

In the case of `[O-][Cl+2]([O-])O`, the carcinogen call runs as follows: (Species: MOUSE, Strain/Sex: B6C3F1/FEMALE (50, 50, 50, 50), Route: DRINKING WATER, 500, 1000, 2000 MG/L FOR 105 WKS (STUDY DURATION: 105 WKS), 500, 1000, 2000 MG/L FOR 105 WKS (STUDY DURATION: 105 WKS), Tumor Site: Type of Lesion: PANCREAS: ADENOMA OR CARCINOMA) “equivocal”; (Species: MOUSE, Strain/Sex: B6C3F1/MALE (50, 50, 50, 50), Route: DRINKING WATER, 500, 1000, 2000 MG/L FOR 105 WKS (STUDY DURATION: 105 WKS), 500, 1000, 2000 MG/L FOR 105 WKS (STUDY DURATION: 105 WKS)) “inactive; negative”; (Species: RAT, Strain/Sex: F344/N/FEMALE (50, 50, 50, 50), Route: DRINKING WATER, 125, 1000, 2000 MG/L FOR 105 WK (STUDY DURATION: 105 WKS), 125, 1000, 2000 MG/L FOR 105 WK (STUDY DURATION: 105 WKS)) “inactive; negative; ntp reports as some evidence for thyroid but p values are not statisti”; (Species: RAT, Strain/Sex: F344/N/MALE (50, 50, 50, 50), Route: DRINKING WATER, 125, 1000, 2000 MG/L FOR 105 WK (STUDY DURATION: 105 WKS), 125, 1000, 2000 MG/L FOR 105 WK (STUDY DURATION: 105 WKS), Tumor Site: Type of Lesion: THYROID: FOLLICULAR CELL ADENOMA OR CARCINOMA) “active; positive (p = 0.052); ntp reports as some evidence”.

Consider `O=C1OC2(c3ccc(O)cc3Oc3cc(O)ccc32)c2ccccc21`, for which the carcinogen call is “inactive; negative” (Species: MOUSE, Strain/Sex: SWISS-WEBSTER/FEMALE, Route: DERMAL, 1% IN 0.1 ML 0.1% SODIUM LAURYL SULFATE 1/WK FOR 18 MO (STUDY DURATION: 18 MO)) and “inactive; negative” (Species: MOUSE, Strain/Sex: SWISS-WEBSTER/MALE, Route: DERMAL, 1% IN 0.1 ML 0.1% SODIUM LAURYL SULFATE 1/WK FOR 18 MO (STUDY DURATION: 18 MO)).

In the case of `O[C@@H]1C=Cc2c(ccc3cc4ccccc4nc23)[C@H]1O`, the carcinogen call (Species: MOUSE, Strain/Sex: SWISS/FEMALE, Route: INTRAPERITONEAL, 1.05 UMOL GIVEN AS 150 NMOL IN 5 µL DMSO WITHIN 24 HR OF BIRTH, 300 NMOL IN 10 µL DMSO ON D 8 OF LIFE, AND 600 NMOL I, Tumor Site: Type of Lesion: LUNG: ADENOMA) was “active; positive” and the carcinogen call (Species: MOUSE, Strain/Sex: SWISS/MALE, Route: INTRAPERITONEAL, 1.05 UMOL GIVEN AS 150 NMOL IN 5 µL DMSO WITHIN 24 HR OF BIRTH, 300 NMOL IN 10 µL DMSO ON D 8 OF LIFE, AND 600 NMOL I, Tumor Site: Type of Lesion: LUNG: ADENOMA, LIVER: NEOPLASTIC NODULE) was “active; positive”.

For `CCOC(=O)CC(SP(=O)(OC)OC)C(=O)OCC` (stereo not drawn), the carcinogen call is, setting by setting: (Species: MOUSE, Strain/Sex: B6C3F1/FEMALE, Route: ORAL, 500, 1000 PPM IN DIET, 500, 1000 PPM IN DIET) “inactive; negative”; (Species: MOUSE, Strain/Sex: B6C3F1/MALE, Route: ORAL, 500, 1000 PPM IN DIET, 500, 1000 PPM IN DIET) “inactive; negative”; (Species: RAT, Strain/Sex: F344/FEMALE, Route: ORAL, 500, 1000 PPM IN DIET, 500, 1000 PPM IN DIET) “inactive; negative”; (Species: RAT, Strain/Sex: F344/MALE, Route: ORAL, 500, 1000 PPM IN DIET, 500, 1000 PPM IN DIET) “inactive; negative”.

Take `O=[N+]([O-])c1ccc2ccc3ccc([N+](=O)[O-])c4ccc1c2c34`: the carcinogen call reads like this: (Species: RAT, Strain/Sex: F344/MALE, Route: SUBCUTANEOUS, 0.002, 0.02 MG 2/WK FOR 10 WK (STUDY DURATION: 320 D), 0.002, 0.02 MG 2/WK FOR 10 WK (STUDY DURATION: 320 D), Tumor Site: Type of Lesion: INJECTION SITE: SARCOMA) “active; positive”; (Species: RAT, Strain/Sex: STRAIN CD/FEMALE, Route: INTRAGASTRIC, 10 UMOL IN DMSO 3/WK FOR 4 WK (TOTAL DOSE: 16 UMOL/RAT) (STUDY DURATION: 78 WK), Tumor Site: Type of Lesion: ADRENAL GLAND: PHEOCHROMOCYTOMA, CORTICAL ADENOMA, PITUITARY GLAND: CARCINOMA, LIVER: HYPERPLASTIC NODULES, Tumor Site: Type of Lesion: ADRENAL GLAND: PHEOCHROMOCYTOMA, CORTICAL ADENOMA, PITUITARY GLAND: CARCINOMA, LIVER: HYPERPLASTIC NODULES) “active; positive”; (Species: RAT, Strain/Sex: STRAIN CD/FEMALE, Route: INTRAGASTRIC, 10 UMOL IN DMSO 3/WK FOR 4 WK (TOTAL DOSE: 16 UMOL/RAT) (STUDY DURATION: 78 WK), Tumor Site: Type of Lesion: MAMMARY GLAND: ADENOCARCINOMA, FIBROADENOMA) “active; positive”; (Species: RAT, Strain/Sex: STRAIN CD/FEMALE, Route: INTRAPERITONEAL, 10 UMOL IN DMSO 3/WK FOR 4 WK (TOTAL DOSE: 16 UMOL/RAT) (STUDY DURATION: 78 WK), Tumor Site: Type of Lesion: HEMATOPOIETIC SYSTEM: HISTIOCYTOMA, LEUKEMIA) “active; positive”; (Species: RAT, Strain/Sex: STRAIN CD/FEMALE, Route: INTRAPERITONEAL, 10 UMOL IN DMSO 3/WK FOR 4 WK (TOTAL DOSE: 16 UMOL/RAT) (STUDY DURATION: 78 WK), Tumor Site: Type of Lesion: MAMMARY GLAND: ADENOCARCINOMA) “active; positive”; (Species: RAT, Strain/Sex: STRAIN-CD/FEMALE, Route: SUBCUTANEOUS, 6.3 UMOL (TOTAL DOSE) ADMINISTERED OVER 8 WK BEGINNING ON DAY OF BIRTH (STUDY DURATION: 67 WK), Tumor Site: Type of Lesion: INTEGUMENTARY SYSTEM: MALIGNANT FIBROUS HISTIOCYTOMA, HEMATOPOIETIC SYSTEM: LEUKEMIA) “active; positive”.
